Reference: patent US20250212884A1, “Magnesia Compounds For Preventing Contamination Of Animal Farming Facilities And For Decontamination Of Same” (priority 2022, published 2025)

Tested on: Salmonella
Assay: Salmonella detection (drag swabs, ISO 6579-1:2017) in poultry (turkey) buildings one week after spraying of disinfectant
Parameters: species or system Salmonella spp.
Conditions: Experiment 3; one week after application; 500 liter per 1000 m^2

Cc1ccc(S(=O)(=O)NCl)cc1.[Na] [Chlorigal T, Sodium N-chloro-para-toluenesulfonamide]
Salmonella test result, Sample #1: Negative
Salmonella test result, Sample #2: Negative
